One experiment deals with KIR6.2 (mouse) (UniProt Q61743). The experiment is described as follows: cell-based or functional assay.
The test system of the next experiment is KIR6.2/NMT 55-SUR2A. The experiment in a line: Inside-out patch-clamp potassium current, ATP sensitivity. The class given is cell-based, mouse. To be noted: 100 μM ATP, COS1 cells containing KIR6.2/NMT 55-SUR2A, 0 mV, room temperature (FIG. 3C). As for the experimental part: (§1) Cellular Electrophysiology: Electrophysiology experiments were carried out as previously described by Chutkow el al., with modifications. Chutkow W, et al., “Alternative splicing of sur2 Exon 17 regulates nucleotide sensitivity of the ATP-sensitive potassium channel,” J. Biol. Chem. 274:13656-13665 (1999). Briefly, KIR^6.2 was sub-cloned to 5′ of a bicistronic vector (pIRGFP, as pNQ56.) to express the desired NMT-SUR2 short forms and GFP under control of a cytomegalovirus promoter. The KIR6.2 construct was transiently expressed in COS1 cell lines that stably expressed NMT 55-SUR2A or NMT 55-SUR2B. Cells expressing GFP were used for cellular electrophysiological analysis.
(§2) Potassium currents were measured at room temperature (˜22-25° C.) by an inside-out patch-clamp technique. The bath solution (cytoplasmic side) comprised the following: 140 mM KCl, 2 mM cthylene glycol-bis(β-aminioethyl ether)-N,N,N′,N′-tetraacetic acid (EGTA), 5.5 mM glucose and 5 mM N-2-hydroxyethylpiperazine-N′-2-ethanesulfonic acid (HEPES) with pH 7.3. The pH was adjusted to the designated values using KOH or HCl. 100 μM K2ATP (Sigma) was used to test the ATP sensitivity, and the ATP-containing solutions were freshly prepared. […] Signals were recorded continuously at 0 mV using a patch-clamp amplifier (Axopatch 200; Molecular Devices; Toronto, Canada) and Clampex 10.0 software (Molecular Devices).

For the next experiment, the system named is KIR6.2/NMT 55-SUR2B. The experiment is described as above. Type of experiment: cell-based, mouse. To be noted: 100 μM ATP, COS1 cells containing KIR6.2/NMT 55-SUR2B, 0 mV, room temperature (FIG. 4C). As for the experimental part: as §1, §2

Sequence of UniProt Q61743 (Q61743 whole entry): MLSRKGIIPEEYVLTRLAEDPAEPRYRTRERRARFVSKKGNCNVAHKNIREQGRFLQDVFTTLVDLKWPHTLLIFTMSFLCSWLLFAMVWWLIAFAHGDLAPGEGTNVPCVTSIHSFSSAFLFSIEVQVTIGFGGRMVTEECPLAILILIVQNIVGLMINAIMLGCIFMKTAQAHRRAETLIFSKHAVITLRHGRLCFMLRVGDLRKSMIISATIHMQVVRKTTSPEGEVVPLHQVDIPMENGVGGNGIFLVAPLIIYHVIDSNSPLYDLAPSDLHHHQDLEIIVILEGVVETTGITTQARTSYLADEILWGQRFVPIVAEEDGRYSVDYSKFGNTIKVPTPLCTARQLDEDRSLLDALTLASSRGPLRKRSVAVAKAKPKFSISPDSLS

In turn, “SUR2B short form (~55 kDa) (from UniProt P70170 1-1504)” showed a growth of E. coli K+ uptake mutant 6106 in M9 minimal medium pH 5.5 with KIR6.2 (mouse) of 12%. Consider `Nc1ncnc2c1ncn2[C@@H]1O[C@H](COP(=O)([O-])OP(=O)(O)OP(=O)([O-])O)[C@@H](O)[C@H]1O.[K+].[K+]` [ATP], for which the IKATP-like current entry in the experiment on KIR6.2/NMT 55-SUR2A and in the experiment on KIR6.2/NMT 55-SUR2B was “inhibited” in each case.
